Broadly, the pEC50 is the negative decadic logarithm of the EC50, by convention in mol/L. As a reminder, the inhibition in vivo is the change of the read-out against control, counted positive when it falls. A higher inhibition in vivo goes with a strong effect.

Results on 6 compounds are retold here after US10960007B2, “Pharmacologically active aryl-substituted pyrazolo[1,5-a]pyrimidine derivatives” (RICHTER GEDEON NYRT., priority 2017, dated 2021).

In series [1] the target is T1, GABAB receptor (Rattus norvegicus, UniProt O88871+Q9Z0U4).
T1 construct: from tissue; host or cells: rat brain cortex membranes
Description: In vitro [35S]GTPγS binding assay in rat cortical membranes. In kind it is biochemical. Here is the method: In Vitro [^35S]GTPγS Binding Assay in Rat Cortical Membranes
Cortices of freshly harvested rat brains were dissected on an ice-cold surface and homogenized by a glass Dounce homogeniser immediately in ice-cold buffer containing 50 mM Tris, 5 mM MgCl2 and 1 mM EDTA (pH=7.6). Tissue homogenates were centrifuged at 40000 g for 15 min at 4° C. Membrane pellets were resuspended in the same buffer and membranes were incubated for 10 min at 30° C. in a shaking water bath to eliminate endogenous GABA. Homogenates were centrifuged again under the same conditions. The final pellets were resuspended in ice-cold buffer (pH=7.6) containing 50 mM Tris, 100 mM NaCl, 7 mM MgCl2, 1 mM EDTA and 1 mM dithiotreithol (DTT) to yield a concentration of 20 mg tissue weight/ml and frozen at −70° C. until use. The assay was done in a buffer containing 50 mM Tris (pH=7.4), 100 mM NaCl, 7 mM MgCl2, 1 mM EDTA and 1 mM DTT. Each assay tube contained 150 μL GDP (in a final concentration of 50 μM), 100 μL ligand and 125 μL of the membrane suspension (250 μg tissue/tube). The assay tubes were preincubated for 10 min at 30° C. to assure equilibrium. Nonspecific binding was determined in the presence of 10 μM GTPγS; basal binding was determined in the presence of buffer only. After addition of […] [^35S]GTPγS in a volume of 25 μL to the tubes, membranes were incubated for an additional 60 min at 30° C. The assay was terminated by rapid filtration through Packard UniFilter GF/B using a Packard harvester and washed four times with 1 ml ice-cold buffer. After drying the filters at 40° C. for 1 h, 40 μL Microscint (Packard) was added to the filters and radioactivity of the filters was determined by a TopCount NXT (PerkinElmer, Waltham, Mass.; Alper and Nelson, Eur. J. Pharmacol. 1998, 343, 303-312; Rinken et al, Biochem. Pharmacol. 1999, 57, 155-162). Data thus gathered were used to determine PAM EC50 values for each compound as primary in vitro activity end point.
On the technique in general: GTPγS is a poorly hydrolysed GTP analogue; its binding reports G protein activation.

Series [2] deals with T2, GABAB receptor (Homo sapiens, UniProt O75899+Q9UBS5). The settings on record: Perdona et al, Neuropharmacology 2011; read-out: EC50, positive modulation of EC20 GABA-evoked [35S]GTPγS binding signal; cited from earlier work.
The subject of series [3] is rats. The settings on record: significance only at high doses (30 and 100 mg/kg); cited from earlier work.
In series [4] the test system is mice. The settings on record: cited from earlier work.
The conditions of series [5]: human conventional liver microsomes; cited from earlier work. For orientation: Microsomes from liver hold many membrane-bound enzymes, among them those of drug oxidation.
For series [6] the following is noted: rat conventional liver microsomes; cited from earlier work.
The conditions of series [7]: mouse conventional liver microsomes; cited from earlier work.
Series [8] deals with T2, GABAB receptor. The settings on record: compounds of Faghih et al., US 2016/0304527 A1; cited from earlier work.
Series [9] relates to adult rats. Description: Foot shock-induced ultrasonic vocalization (USV) in adult rats. In kind it is in vivo, rat. The settings on record: male Wistar rats; for inhibition in vivo at 10 mg/kg: Rattus norvegicus, po, 10 mg/kg per os, 1 h before shocking. The procedure:
Foot Shock-Induced Ultrasonic Vocalization (USV) in Adult Rats
(§1) Under stressful conditions, adult rats emit 22 kHz ultrasounds that can be reduced by various pharmacological treatments (De Vry et al, Eur. J. Pharmacol. 1993, 249, 331-339; Sanchez, Eur. J. Pharmacol. 2003, 463, 133-143). […] Therefore, a foot shock-induced vocalization paradigm in adult rats was used to assess in vivo efficacy of centrally acting GABAB receptor ligands. Behavioral measurements were carried out on male Wistar rats (200-250 g, Toxicoop, Hungary). Rats were housed in groups of four in plastic cages with a wire grid top in a temperature and light-controlled laboratory animal care unit (22±2° C., 12-h light/dark cycle, lights on at 6:00 AM) with ad libitum access to commercial pellet rat food and tap water. Investigations were approved by the Local Ethical Committee of Gedeon Richter Plc. and were carried out in strict compliance with the European Directive 2010/63/EU regarding the care and use of laboratory animals for experimental procedures and all efforts were made to minimize the number of animals as well as their suffering. In order to evoke emission of ultrasounds, animals were footshocked after a habituation period of 30 s (6 shocks, 1 s, 0.8 mA each, inter-shock interval 10 s) in a sound attenuated shocking chamber (Experimetria, 40×40×80 cm). […] Vocalizations were measured right after the last footshock for 10 min with a Metris Sonotrack system and the total time of vocalizations was registered. Vocalization of parallel vehicle treated animals was considered as control value and inhibition percent was calculated for each compound. At approximately 75 min after treatment and behavioral measurements, blood and brain samples were harvested in order to determine exposures associated with in vivo activity.

Series [10] is described as follows: Plasma and brain exposure after USV measurement. The settings on record: rat, per os, about 75 min after treatment, formulation Tween. The class given is in vivo. Here is the method:
as §1

Where [11] appears, read: [35S]GTPγS binding, rat cortical membranes, read-out: In vitro PAM potency (PAM EC50).

pEC50: −log10 of the molar value. Where two headings read alike, the source gives them in different places.

T1 sequence (O88871 41-940): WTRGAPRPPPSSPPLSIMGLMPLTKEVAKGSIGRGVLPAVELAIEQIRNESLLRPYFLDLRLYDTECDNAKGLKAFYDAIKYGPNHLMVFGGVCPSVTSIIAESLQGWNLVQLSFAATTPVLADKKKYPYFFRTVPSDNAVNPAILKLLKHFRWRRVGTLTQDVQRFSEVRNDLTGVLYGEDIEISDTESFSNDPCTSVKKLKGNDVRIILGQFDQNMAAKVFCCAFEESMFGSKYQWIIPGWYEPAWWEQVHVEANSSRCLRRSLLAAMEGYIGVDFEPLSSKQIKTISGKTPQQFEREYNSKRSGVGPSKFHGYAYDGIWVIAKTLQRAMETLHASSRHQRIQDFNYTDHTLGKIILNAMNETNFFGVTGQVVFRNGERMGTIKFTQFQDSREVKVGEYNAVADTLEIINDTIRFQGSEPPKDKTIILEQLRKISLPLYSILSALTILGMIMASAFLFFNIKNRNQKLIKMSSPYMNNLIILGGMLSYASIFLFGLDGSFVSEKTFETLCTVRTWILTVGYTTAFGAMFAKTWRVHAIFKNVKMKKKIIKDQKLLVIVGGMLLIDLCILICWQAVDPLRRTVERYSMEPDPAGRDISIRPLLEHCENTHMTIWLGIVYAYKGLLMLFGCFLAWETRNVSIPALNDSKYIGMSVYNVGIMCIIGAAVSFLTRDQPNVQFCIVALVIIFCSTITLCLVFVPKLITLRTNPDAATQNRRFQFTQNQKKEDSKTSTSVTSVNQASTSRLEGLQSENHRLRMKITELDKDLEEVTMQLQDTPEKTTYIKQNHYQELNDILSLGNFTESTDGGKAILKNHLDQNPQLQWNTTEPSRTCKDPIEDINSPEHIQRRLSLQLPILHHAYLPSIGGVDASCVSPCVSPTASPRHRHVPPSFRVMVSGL
T1 sequence (Q9Z0U4 17-960 limits assumed): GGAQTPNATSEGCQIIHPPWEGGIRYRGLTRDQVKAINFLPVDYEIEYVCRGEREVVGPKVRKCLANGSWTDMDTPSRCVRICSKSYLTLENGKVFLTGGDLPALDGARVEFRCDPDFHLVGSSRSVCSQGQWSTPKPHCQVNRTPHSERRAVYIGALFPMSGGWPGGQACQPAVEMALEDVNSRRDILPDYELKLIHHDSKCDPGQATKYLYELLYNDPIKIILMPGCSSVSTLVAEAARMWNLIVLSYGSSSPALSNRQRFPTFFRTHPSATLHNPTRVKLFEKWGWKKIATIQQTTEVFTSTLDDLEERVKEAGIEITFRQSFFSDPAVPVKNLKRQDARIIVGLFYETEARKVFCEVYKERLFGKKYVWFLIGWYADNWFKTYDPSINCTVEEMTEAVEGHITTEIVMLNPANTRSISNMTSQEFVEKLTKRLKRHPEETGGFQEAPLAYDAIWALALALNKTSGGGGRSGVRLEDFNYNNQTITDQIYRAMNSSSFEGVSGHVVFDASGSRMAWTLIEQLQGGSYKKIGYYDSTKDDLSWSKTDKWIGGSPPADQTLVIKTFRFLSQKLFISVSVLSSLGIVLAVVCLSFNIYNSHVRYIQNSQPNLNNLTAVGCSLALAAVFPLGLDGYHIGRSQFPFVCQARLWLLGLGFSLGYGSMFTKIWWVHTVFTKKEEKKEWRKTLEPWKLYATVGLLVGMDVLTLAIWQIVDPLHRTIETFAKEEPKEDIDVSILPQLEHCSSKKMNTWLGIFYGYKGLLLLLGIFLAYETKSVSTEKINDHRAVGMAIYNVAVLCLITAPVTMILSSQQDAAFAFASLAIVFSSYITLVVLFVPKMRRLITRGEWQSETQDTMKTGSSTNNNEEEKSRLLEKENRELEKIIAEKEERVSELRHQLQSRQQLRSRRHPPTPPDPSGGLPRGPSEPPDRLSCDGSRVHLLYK
T2 sequence (O75899 42-941): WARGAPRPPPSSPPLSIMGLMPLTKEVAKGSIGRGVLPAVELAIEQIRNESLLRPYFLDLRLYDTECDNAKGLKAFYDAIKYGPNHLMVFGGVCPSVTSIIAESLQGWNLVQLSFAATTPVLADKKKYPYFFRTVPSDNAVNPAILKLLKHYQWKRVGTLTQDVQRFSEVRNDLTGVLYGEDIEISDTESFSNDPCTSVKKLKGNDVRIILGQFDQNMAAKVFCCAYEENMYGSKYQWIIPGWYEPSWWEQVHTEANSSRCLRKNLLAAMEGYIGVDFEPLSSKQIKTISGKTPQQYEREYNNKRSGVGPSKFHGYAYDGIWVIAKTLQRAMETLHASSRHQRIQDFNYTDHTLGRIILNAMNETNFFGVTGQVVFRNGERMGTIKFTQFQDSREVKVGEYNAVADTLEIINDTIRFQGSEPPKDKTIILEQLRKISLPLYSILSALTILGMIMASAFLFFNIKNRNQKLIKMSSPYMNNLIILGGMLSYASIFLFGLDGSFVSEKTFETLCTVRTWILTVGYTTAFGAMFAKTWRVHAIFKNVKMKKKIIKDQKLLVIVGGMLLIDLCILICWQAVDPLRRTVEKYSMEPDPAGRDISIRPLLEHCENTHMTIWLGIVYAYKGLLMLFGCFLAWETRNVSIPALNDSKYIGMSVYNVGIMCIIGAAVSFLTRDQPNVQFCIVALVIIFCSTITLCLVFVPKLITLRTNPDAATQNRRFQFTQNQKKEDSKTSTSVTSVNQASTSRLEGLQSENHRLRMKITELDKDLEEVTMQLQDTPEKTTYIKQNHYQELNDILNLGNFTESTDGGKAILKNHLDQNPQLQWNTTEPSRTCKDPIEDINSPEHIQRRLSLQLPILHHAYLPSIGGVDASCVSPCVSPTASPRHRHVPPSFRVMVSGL
T2 sequence (Q9UBS5 15-961 limits assumed): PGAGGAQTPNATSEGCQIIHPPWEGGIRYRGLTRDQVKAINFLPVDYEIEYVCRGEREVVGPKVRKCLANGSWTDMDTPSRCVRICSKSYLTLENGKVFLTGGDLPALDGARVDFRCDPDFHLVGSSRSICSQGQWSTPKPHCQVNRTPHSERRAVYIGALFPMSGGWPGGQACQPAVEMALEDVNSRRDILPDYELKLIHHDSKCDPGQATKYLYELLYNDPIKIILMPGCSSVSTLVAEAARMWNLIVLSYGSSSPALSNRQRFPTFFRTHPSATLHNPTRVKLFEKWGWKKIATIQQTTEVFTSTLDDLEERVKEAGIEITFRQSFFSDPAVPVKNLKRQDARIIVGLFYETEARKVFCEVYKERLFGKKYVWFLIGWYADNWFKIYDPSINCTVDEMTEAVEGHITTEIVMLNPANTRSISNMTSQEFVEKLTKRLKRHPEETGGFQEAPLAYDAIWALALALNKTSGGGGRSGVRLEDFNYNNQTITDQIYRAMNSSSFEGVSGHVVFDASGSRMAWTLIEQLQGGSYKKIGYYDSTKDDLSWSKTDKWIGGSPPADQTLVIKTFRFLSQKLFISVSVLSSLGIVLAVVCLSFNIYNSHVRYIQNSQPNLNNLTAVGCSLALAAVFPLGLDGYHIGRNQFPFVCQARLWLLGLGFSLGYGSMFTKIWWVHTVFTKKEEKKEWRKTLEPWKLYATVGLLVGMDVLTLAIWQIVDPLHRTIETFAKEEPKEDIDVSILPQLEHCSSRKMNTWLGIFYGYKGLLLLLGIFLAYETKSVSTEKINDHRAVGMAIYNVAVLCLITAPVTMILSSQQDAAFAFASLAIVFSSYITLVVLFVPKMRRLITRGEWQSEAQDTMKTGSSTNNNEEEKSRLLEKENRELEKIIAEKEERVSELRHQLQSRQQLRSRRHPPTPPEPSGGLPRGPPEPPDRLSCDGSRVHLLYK

Take `Cc1cc(N2CCCCC2CCO)n2nc(-c3ccc(Cl)cc3)cc2n1` (stereo not drawn) [CMPPE, 2-{1-[2-(4-chlorophenyl)-5-methylpyrazolo[1,5-a]pyrimidin-7-yl]-2-piperidinyl}ethanol]: the pEC50 in [1] (applicant's test system, read-out: EC50 in our in vitro [35S]GTPγS test system) is 6.21; in [2], 5.59. For the same compound, the “Efficacy in food consumption test” value in series [3] is recorded as “mild efficacy”. For the same compound, the “ED50, potentiation of baclofen-induced muscle relaxation” value in series [4] was 53.8 mg/kg. For the same compound, the Clint in series [5] is given as 0.19±0.02 mL/min/g liver; in series [6] it was 0.31±0.07 mL/min/g liver; in series [7], 1.18±0.4 mL/min/g liver.

Turning to `CCC(c1ccc(Cl)cc1)c1cc2nc(C)cc(N3CCCCC3CCO)n2n1` (stereo not drawn) [Example 3-1], in [8], the “Binding potency (in words)” value is “nanomolar”.

Regarding `COCC1(C(=O)O)CCCN(c2c(C(C)C)c(C)nc3cc(-c4ccc(C(F)(F)F)cc4)nn23)C1` (stereo not drawn) [Example 16], in series [1] (setting [11]), the pEC50 is 7.00 to 8.00. Moreover, at 10 mg/kg the inhibition in vivo in series [9] was 41%. In [10], the “Brain exposure at 1 mg/kg” value is recorded as 28 ng/g and the “Plasma exposure at 1 mg/kg” value amounted to 103 ng/mL.

Turning to `COCC1(C(=O)O)CCCN(c2c(C(C)C)c(C)nc3cc(-c4ccc(C(F)(F)F)cc4F)nn23)C1` (stereo not drawn) [Example 17, 1-{2-[2-Fluoro-4-(trifluoromethyl)phenyl]-5-methyl-6-(propan-2-yl)pyrazolo[1,5-a]pyrimidin-7-yl}-3-(methoxymethyl)piperidine-3-carboxylic acid], the pEC50 in [1] (setting [11]) was 8.00 to 9.00. The compound also had an inhibition in vivo at 10 mg/kg in series [9] of 44%. For the same compound, in [10], the “Brain exposure at 1 mg/kg” value is listed as 144 ng/g and the “Plasma exposure at 1 mg/kg” value was determined as 443 ng/mL.

Take `Cc1nc2cc(-c3ccc(C(F)(F)F)cc3)nn2c(N2CCC[C@@](C(=O)O)(C(C)C)C2)c1C(C)C` [Example 28]: in [1] (setting [11]), the negative-log EC50 (pEC50) is 7.00 to 8.00. The compound further returned an inhibition in vivo at 10 mg/kg in series [9] of 35%. In series [10], the “Brain exposure at 1 mg/kg” value was found to be 184 ng/g and the “Plasma exposure at 1 mg/kg” value is on record as 222 ng/mL.

Turning to `Cc1nc2c(F)c(-c3ccc(C(F)(F)F)cc3)nn2c(N2CCC[C@](C)(C(=O)O)C2)c1C(C)C` [Example 84], in series [1] (setting [11]), the pEC50 is 8.00 to 9.00. For the same compound, in series [9] (at 3 mg/kg, per os), the “USV inhibition (%)” value is listed as 42 (at 3 mg/kg) %. In series [10], the “Brain exposure at 1 mg/kg” value is 85 ng/g and the “Plasma exposure at 1 mg/kg” value came out at 113 ng/mL.
